Data on 1 compound can be found in patent US20090312373A1, “METHODS FOR THE TREATMENT OF CANCER USING PIPERLONGUMINE AND PIPERLONGUMINE ANALOGS” (The General Hospital Corporation, priority 2008, published 2009).

For data set [1], the system named is EJ human bladder cancer cell xenografts. Briefly: EJ human bladder cancer xenograft in nude mice. The format is in vivo, mouse. On the procedure: We tested piperlongumine in colon tumor, breast, melanoma or bladder tumor xenograft-bearing mice to evaluate the anti-tumor effect of piperlongumine. We examined EJ human bladder cancer cell xenografts (non-functional p53) to evaluate anti-tumor effects. A total of 2×10^6 EJ cells or SW480 cells were implanted subcutaneously on opposite site flanks in each of six nude/nude mice in each group. When tumor masses grew to ˜5-10 mm in diameter, piperlongumine was administered intraperitoneally (28 ug per each intraperitoneal administration, total 1.2 mg/kg) every 48 hours for 12 days (6 times total).

Data set [2] has as its system mouse B16-F10 melanoma cells. In words: B16-F10 mouse melanoma in B6 wild type mice. Type of data set: in vivo. To be noted: 28 ug i.p. every 48 hours for 12 days (total 1.2 mg/kg); compared to DMSO. On the procedure:
We tested the effectiveness of piperlongumine in wild type mice using mouse B16-F10 melanoma cells. A total 2×10^6 cells were implanted subcutaneously on opposite site flanks in each of 12 B6 wild type mice in each group. When tumor masses grew to ˜5-10 mm in diameter, piperlongumine was administered intraperitoneally (28 ug per each intraperitoneal administration, total 1.2 mg/kg) every 48 hours for 12 days (6 times total).

The test system of the next data set is p53. Briefly: p53 acetylation Western blot in U2OS cells. The note with it: 6 hours. Type of data set: cell-based, human. On the procedure:
U2OS cells were treated with piperlongumine (SP), the HDAC inhibitor TSA (trichostatin A ([…])) or the control DMSO for 6 hours. Cell extracts were fractionated in SDS-PAGE gel and analyzed by western blot.

The subject of the next data set is human cancer cell lines. In words: SRB (Sulforhodamine B) staining assay in human cancer cell lines. Type of data set: cell-based. On the procedure: The tumor growth inhibitory effect of piperlongumine was evaluated in a variety of human cancer cell lines. Cells were grown in ˜50-70% confluency and treated with piperlongumine and known anti-cancer agents at various concentrations (0.1-30 μM) and analyzed for cell death or viability by SRB (Sulforhodamine B) staining assay. The SRB assay is a well established assay that is used for the detection of cell death, viability or proliferation in drug screening.

For the next data set, the system named is MMTV-PyVT mammary tumor. In words: MMTV-PyVT spontaneous mammary tumor mouse model. The format is in vivo. The source says: MMTV-PvVT (FVB/N-Tg) transgenic mice develop multifocal mammary tumor (from hyperplasia to metastatic) with a high incidence of metastasis (Mice were obtained from the NCI repository). This mouse model has been widely used for the correlation studies of human cancer (Guy et al., Moll. Cell. Biol. 12: 954-961, 1992). In addition, this onco-mouse model has been used to evaluate the effectiveness of potential drug therapies. Generally, due to aggressiveness of tumor growth and spread in this mouse-model, only a combination of chemo-drugs is effective in tumor growth inhibition. MMTV-PyVT mice were maintained until mammary tumor size reached to 6 mm, and then piperlongumine (2.4 mg/kg) or vehicle (DMSO) was given daily by i.p. for 13 days. Tumor size was measured every 4 days (See FIGS. 31 and 32).
We compared the anti-tumor activity of piperlongumine (SP2007) with taxol, a well known chemo drug, in the MMTV-PyVT tumor mouse model as described above (8 mice per group). When tumor sizes grew to ˜5-6 mm in diameter, SP2007 (2.4 mg/kg/day) or Taxol (Paclitaxel, 10 mg/kg/day) was administered intraperitoneally (I.P.) daily for two weeks. After two weeks treatment, mice were sacrificed, and mammary tumors excised and the tumor sizes measured. […] The size of the grossly dissected tumors was measured using the formula: mean diameter=(A+B)/2.

Data set [3] deals with Twist, N-cadherin and p120 catenin. Briefly: Western blot of Twist, N-cadherin and p120 catenin in EJ and U2OS cells. The format is cell-based, human. The note with it: 10 μM and 20 μM, 20 hours. On the procedure:
A scheme for piperlongumine (SP2007)-mediated repression of Twist expression and its downstream targets that are involved in tumor invasion/metastasis is presented in FIG. 39A. […] U2OS and EJ cells were treated with SP2007 at two concentrations (10 μM and 20 μM) as well as with DMSO as a solvent control. After 20 hours, cell lysates were extracted and western blotting was performed against Twist, N-cadherin and p120 catenin (Zymed and Sigma Aldrich). […] Female MMTV-PyVT mice at 8-9 weeks age were chosen for the studies. When tumor sizes grew to ˜5-6 mm in diameter, SP2007 or DMSO was administered intraperitoneally (I.P., total 2.4 mg/kg of SP2007) daily for two weeks. After two weeks treatment, mice were sacrificed and mammary tumors excised and processed for histological examination.
(In general: In western blotting, separated proteins are transferred to a membrane and probed.)

Data set [4] can be described thus: Precipitation on dilution of DMSO solution. The format is physicochemical. To be noted: diluted 1:10 in phosphate buffered saline or water. On the procedure:
To avoid toxicity, piperlongumine should be used at less than 2.5 mg/kg in mice. The skilled person will know how to formulate the compounds of the invention in accordance with the solubility by selection of appropriate carriers, solubilizers, etc.

Another data set has as its system miRNA-10b. In words: miRNA microarray analysis in U2OS and EJ cells. More on the design: dose or concentration left out as unconfirmed. The note with it: 0, 6 and 24 hrs. Type of data set: cell-based, human. How it is done: U2OS cells and EJ cells were treated with piperlongumine ([…]) and total RNA was extracted after 0, 6 and 24 hrs using miRNeasy Mini Kit (Qiagen, Germantown, Md.) according to the manufacturer's instructions. The miRNA microarray analysis was done by LC Sciences (Houston, Tex.). Total RNA (10 μg) was size fractionated (<200 nucleotides) by using a mirVana kit (Ambion, Austin, Tex.) and labeled with Cy3 or Cy5 fluorescent dyes. Dye switching was done to eliminate the dye bias. Pairs of labeled samples were hybridized to dual-channel microarrays. Microarray assays were done on a μParaFlo microfluidics chip with each of the detection probes containing a nucleotide sequence of coding segment complementary to a specific miRNA sequence and a long non-nucleotide molecule spacer that extended the detection probe away from the substrate. miRNA detection signal threshold was defined as twice the maximum background signal. The maximum signal level of background probes was 180. Normalization was done using a cyclic LOWESS (locally weighted regression) method to remove the system-related variations. Data adjustments included data filtering, log2 transformation, and gene centering and normalization (Analysis performed at LCScience). The t-test analysis was conducted between treated and non-treated and U2OS and EJ samples, and miRNA with P values<0.05 were selected for cluster analysis. […]

Setting [5] is: 2.4 mg/kg daily i.p. for 13 days.

For the compound `COc1cc(/C=C/C(=O)N2CCC=CC2=O)cc(OC)c1OC` [piperlongumine, N-(3,4,5,-trimethoxycinnamoyl)-Δ^3-piperidine-2-one], the anti-tumor effect entry in data set [1] (28 ug i.p. every 48 hours for 12 days (total 1.2 mg/kg), compared to DMSO) is recorded as “significant anti-tumor effects”; in data set [2], “significant anti-tumor effects”. Moreover, the “blood vessel formation (angiogenesis) in the tumors” value in data set [1] (tumor mice) was “strongly inhibited”. In data set [1] (tumor mice), the “expression of apoptosis genes (p21, PUMA, Caspase 3) in tumor-mice” value was “enhanced”. Moreover, the “amount of acetylated p53” value in the data set with p53 was “increased the amount of acetylated p53 to a level similar to TSA treated cells”. Moreover, the “total amount of p53” value in the data set with p53 (TSA 10 mM) was “did result in an increased”. Also, the “tumor cell growth inhibition compared to known anti-cancer drugs” value in the data set on human cancer cell lines (0.1-30 μM, variety of human cancer cell lines) was “as well as or better than other well-known anti-cancer drugs”. The cell growth entry in the data set on human cancer cell lines (glioblastoma cell lines) was “inhibits cell growth”; with human cancer cell lines (human melanoma and ovarian cancer cell lines), “inhibits cell growth”; with human cancer cell lines (human renal cancer cell lines), “inhibits cell growth”. Also, in the data set on MMTV-PyVT mammary tumor (setting [5]), the “multiple tumor growth in spontaneous tumor model” value was “inhibits multiple tumor growth”. The “tumor growth in spontaneous mouse model of breast cancer” value in the data set with MMTV-PyVT mammary tumor (setting [5]) is on record as “inhibits tumor growth”. The “anti-tumor effect (mammary tumor size)” value with MMTV-PyVT mammary tumor (2.4 mg/kg/day i.p. daily for two weeks, compared to DMSO) is reported as “Significant anti-tumor effects”. Moreover, the “health of mice during treatment” value with MMTV-PyVT mammary tumor (SP2007 2.4 mg/kg/day i.p. for two weeks) is reported as “remained healthy throughout the treatment time”. In the data set on MMTV-PyVT mammary tumor (SP2007 2.4 mg/kg/day or Taxol 10 mg/kg/day i.p. for two weeks), the secondary tumors result is on record as “No secondary tumors were observed”. Moreover, the “expression of Twist, N-cadherin and p120 catenin” value in data set [3] was “inhibits expression”. Also, the “concentration in DMSO that precipitated out when diluted 1:10” value in data set [4] is recorded as “more than 0.25 mg/ml”. Besides, in the data set with miRNA-10b, the miRNA-10b result was “changes the induction of miRNA-10b”.
